Data set [1] concerns neuronal (HT22) tumor cell line. In words: growth inhibition of neuronal tumor cell line in cell culture. The class given is cell-based, mouse. Here is the method: (§1) For the latter cell line, however, the experiments are not complete as yet. […] The effect was concentration-dependent. […] The tumor cells were inhibited selectively beginning after 30 minutes. Following 1 to 3 hours about 90% of the tumor cells were inhibited. For the cell culture, cells were used in RPM1 1640 medium and plated in Falcon flasks.

Data set [2] deals with mixed neuronal and glial (U373) tumor cell line. As to the kind of experiment: growth inhibition of mixed neuronal and glial tumor cell line in cell culture. The conditions noted are these: experiments are not complete as yet. In kind it is cell-based, human. Here is the method:
as §1

In data set [3] the test system is glioblastoma multiform-tumor cells. As to the kind of experiment: tissue-culture of glioblastoma multiform tumor cells.
The conditions of data set [4]: cited from earlier work.
Data set [5] concerns CNS tumor cell lines (HT22, C6, U373). In words: inhibition of CNS tumor cells in culture (lines reported together), cytological changes recorded over time. In kind it is cell-based. The conditions noted are these: for time after which inhibition of tumor cells started: Results section (HT22, C6).
For data set [6], the system named is glial (C6) tumor cell line. As to the kind of experiment: growth inhibition of glial tumor cell line in cell culture. In kind it is cell-based, rat. Here is the method: as §1
Data set [7] deals with primary CNS-cells (brain cells of rat fetuses). As to the kind of experiment: effect on primary CNS cells in cell culture. In kind it is cell-based.
The mark [8] stands for this setting: following 1 to 3 hours, Example 1.
[9] abbreviates: following about 1 to 2 hours, Results section.

“Also recorded” adds a separate entry of the source.

For `O=S1(=O)CCN(CN2CCS(=O)(=O)NC2)CN1` [Taurolidine, Bis-(1,1-dioxoperhydro-1,2,4-thiadiazinyl-4)methane], the “direct inhibition of growth of tumor cell line” value in data set [1], in data set [2] and in data set [6] was “inhibit directly the growth” in each case. The “concentration that inhibits or kills tumor cells in tissue-culture” value in data set [3] lay within 0.1 to 4 mg/mL. Also, the water solubility entry in data set [4] was “up to 2%”. The “time after which inhibition of tumor cells started” value in data set [5] turned out to be 10 min. For the same molecule, the results for the tumor cells inhibited result in data set [5] (setting [8]) and in data set [5] (setting [9]) were “about 90%” and 90%, respectively.
On to `O=S1(=O)CCNCN1` [Taurultam], for which the “direct inhibition of growth of tumor cell line” value in data set [1], in data set [2] and in data set [6] was “inhibit directly the growth” in each case. In data set [7] (following 48 hours), the “cytological effect on primary CNS-cells” value is recorded as “no significant cytological effect”. For the same molecule, the “effect on CNS nerve cells, including stem cells of embryo meningeal cells” value in data set [7] (following administration of Taurolidine/Taurultam solutions) is recorded as “remain unaffected”. Besides, in data set [7] (primary cell lines of fetal rat central nervous system, compared to tumor cells), the “growth inhibition of normal/primary central nervous system cells (selectivity versus tumor cells)” value is “required significantly higher concentrations and a significantly longer contact time for inhibition; also recorded: not significantly inhibited”. The “effectiveness relative to Taurolidine” value in data set [5] was “almost twice as effective as Taurolidine”. Also, in data set [5] (Example 1), the “time after which selective inhibition of tumor cells began” value was 30 min. The “time after which inhibition of tumor cells started” value in data set [5] amounted to 10 min. The tumor cells inhibited result in data set [5] (setting [8]) is “about 90%”; in data set [5] (setting [9]), 90%.
